How the values were obtained:
[1] = system: brain aging; conditions: 1 g daily, 12 weeks; cited from earlier work
[2] = system: rats; conditions: 250 mg/kg injections for three weeks, three weeks after pilocarpine; cited from earlier work
[3] = 100-300 mg/day; cited from earlier work
[4] = system: Caco2 monolayer; experiment: Permeability of α-GPC through a Caco2 monolayer in the presence and absence of blueberry polyphenol extract; format: in vitro ADME; design: cumulative L-α-GPC, averaged over runs: scale not given here; conditions: for cumulative L-α-GPC, averaged over runs: average of runs 1 and 2; for cumulative L-α-GPC: 5 mM α-GPC in DPBS alone or with 1 mg/ml blueberry polyphenol extract
Procedure: In another series of experiments, the permeability of α-GPC through a Caco2 monolayer was measured to determine whether the presence of a blueberry-based polyphenol extract affected permeability.
More particularly, donor GPC concentrations were reduced to 5 mM. […] This experiment consisted of two independent runs (as identified below as run 1 and run 2). […] The data from the runs is summarized in Table 2, illustrated in FIG. 2 (Total Alpha GPC permeability through a Caco2 monolayer) and averaged below in Table 3. The averaged data is illustrated in FIG. 3. In each of the graphs, the vertical axis units are cumulative L-α-GPC in μg/cm2 and the horizontal axis units are minutes.

[5] = system: cognitive impairment due to Alzheimer's disease; conditions: 400 mg capsules three times daily; cited from earlier work
[6] = system: patients with dementia disorders; conditions: 1570 patients in 10 studies; cited from earlier work
[7] = system: patients with probable senile dementia of Alzheimer's type; conditions: cited from earlier work
[8] = system: hippocampus of the rats; conditions: cited from earlier work
[9] = system: vegetarian subjects; conditions: 5 g/day for six weeks; cited from earlier work

## NC(=O)CN1CC(O)CC1=O (centres unmarked) [oxiracetam]
[1]
  clinical response in brain aging: early improvement which was maintained during the therapy but was rapidly attenuated after discontinuation of the therapy

## C[N+](C)(C)CCOP(=O)([O-])OC[C@H](O)CO [α-GPC, Alpha-glycerylphosphorylcholine]
[1]
  clinical response in brain aging: slower but more sustained
[2]
  cognitive function: improved
  neurogenesis: increased
[3]
  memory, concentration, and focus: helps maintain and improve
  peak power and force output during strenuous exercises: helps to increase
[4]
  effect of α-GPC on permeation of the blueberry polyphenols through the Caco2 monolayer: did not significantly change
[4]; 15 min
  cumulative L-α-GPC, averaged over runs: 0.128 μg/cm2
[4]; 30 min
  cumulative L-α-GPC, averaged over runs: 0.471 μg/cm2
[4]; 45 min
  cumulative L-α-GPC, averaged over runs: 0.643 μg/cm2
[4]; 60 min
  cumulative L-α-GPC, averaged over runs: 0.815 μg/cm2
[4]; 75 min
  cumulative L-α-GPC, averaged over runs: 1.017 μg/cm2
[4]; 90 min
  cumulative L-α-GPC, averaged over runs: 1.292 μg/cm2
[4]; run 1, 15 min
  cumulative L-α-GPC: 18.75 μg/cm2
[4]; run 1, 30 min
  cumulative L-α-GPC: 41.37 μg/cm2
[4]; run 1, 45 min
  cumulative L-α-GPC: 67.92 μg/cm2
[4]; run 1, 60 min
  cumulative L-α-GPC: 103.2 μg/cm2
[4]; run 1, 75 min
  cumulative L-α-GPC: 150.0 μg/cm2
[4]; run 1, 90 min
  cumulative L-α-GPC: 222.4 μg/cm2
[4]; run 2, 15 min
  cumulative L-α-GPC: 47.16 μg/cm2
[4]; run 2, 30 min
  cumulative L-α-GPC: 200.9 μg/cm2
[4]; run 2, 45 min
  cumulative L-α-GPC: 262.8 μg/cm2
[4]; run 2, 60 min
  cumulative L-α-GPC: 316.1 μg/cm2
[4]; run 2, 75 min
  cumulative L-α-GPC: 373.3 μg/cm2
[4]; run 2, 90 min
  cumulative L-α-GPC: 442.1 μg/cm2
[5]
  treatment of the cognitive symptoms of Alzheimer's disease: useful
[6]
  patient clinical results, cognitive symptoms of adult-onset dementia disorders: improved patient clinical results
[7]; ST200 1000 mg morning and 500 mg afternoon
  improvements compared with the ST200 patients: significantly better
[7]; oral 800 mg morning and 400 mg afternoon, six months
  intellectual and emotional impairments: significantly improved
[8]; 75 mg/kg i.g.
  acetylcholine release in the hippocampus: able to increase acetylcholine release
[8]; i.g.
  dose with maximum effect on acetylcholine release: 300 mg/kg

## CN(CC(=O)O)C(=N)N [creatine]
[9]
  working memory and intelligence: Positive results

Reference: patent US20210361731A1 (Phenolics, LLC, priority 2020, published 2021)
